# Data: US12264134B2 (Merck Sharp & Dohme LLC, priority 2018, dated 2025)
# Molecular target: IDO1 (Homo sapiens, UniProt P14902)
# Assay: IDO1 Cellular Assay in HeLa Cells Stimulated with IFNγ
# Type: cell-based
# Conditions: read-out: HeLa Cell Potency, IC50
# Chain of IDO1 (P14902 whole entry): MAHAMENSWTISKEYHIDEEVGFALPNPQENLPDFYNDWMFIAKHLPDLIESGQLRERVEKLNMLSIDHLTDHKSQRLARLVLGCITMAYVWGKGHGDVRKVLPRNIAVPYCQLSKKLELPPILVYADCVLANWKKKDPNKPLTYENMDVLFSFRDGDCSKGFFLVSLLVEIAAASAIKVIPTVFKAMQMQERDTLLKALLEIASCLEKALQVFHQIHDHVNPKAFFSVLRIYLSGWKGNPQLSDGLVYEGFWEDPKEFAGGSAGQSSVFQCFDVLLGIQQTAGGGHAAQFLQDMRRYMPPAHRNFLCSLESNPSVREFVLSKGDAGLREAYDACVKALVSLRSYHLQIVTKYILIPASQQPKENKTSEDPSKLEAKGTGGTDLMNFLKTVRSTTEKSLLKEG
row,Compound,IC50
1,"Cc1c(Cl)cccc1N1CCN(C(=O)Cn2nc(C(=O)N3CCC(O)C(C)C3)c3c2C[C@H]2C[C@@H]32)CC1 (stereo partly drawn) [Example 354, 1-(4-(3-chloro-2-methylphenyl)piperazin-1-yl)-2-((3bR,4aR)-3-(4-hydroxy-3-methylpiperidine-1-carbonyl)-3b,4,4a,5-tetrahydro-1H-cyclopropa[3,4]cyclopenta[1,2-c]pyrazol-1-yl)ethanone]",2.41 nM
2,"CC(=O)NC1CCN(C(=O)c2nn(CC(=O)N3CCN(c4cccc(C)c4C)CC34CC4)c3c2[C@@H]2C[C@@H]2C3)CC1 [Example 356, N-(1-((3bR,4aR)-1-(2-(7-(2,3-dimethylphenyl)-4,7-diazaspiro[2.5]octan-4-yl)-2-oxoethyl)-3b,4,4a,5-tetrahydro-1H-cyclopropa[3,4]cyclopenta[1,2-c]pyrazole-3-carbonyl)piperidin-4-yl)acetamide]",0.73 nM
3,Cc1cccc(N2CCN(C(=O)Cn3nc(C(=O)N4CCC(O)(CF)CC4)c4c3C[C@H]3C[C@@H]43)C3(CC3)C2)c1C [Example 358],1.59 nM
4,Cc1cccc(N2CCN(C(=O)Cn3nc(C(=O)N4CC[C@H](O)[C@@H](F)C4)c4c3C[C@H]3C[C@@H]43)C3(CC3)C2)c1C [Example 359],1.93 nM
5,"Cc1cccc(N2CCN(C(=O)Cn3nc(C(=O)N4CCO[C@H](CO)C4)c4c3C[C@H]3C[C@@H]43)C3(CC3)C2)c1C [Example 363, 1-(7-(2,3-dimethylphenyl)-4,7-diazaspiro[2.5]octan-4-yl)-2-((3bR,4aR)-3-((S)-2-(hydroxymethyl)morpholine-4-carbonyl)-3b,4,4a,5-tetrahydro-1H-cyclopropa[3,4]cyclopenta[1,2-c]pyrazol-1-yl)ethanone]",2.52 nM
6,"Cc1cccc(N2CCN(C(=O)Cn3nc(C(=O)N4CC[C@H](O)[C@H](F)C4)c4c3C[C@H]3C[C@@H]43)C3(CC3)C2)c1C [Example 364, 1-(7-(2,3-dimethylphenyl)-4,7-diazaspiro[2.5]octan-4-yl)-2-((3bR,4aR)-3-((3R,4S)-3-fluoro-4-hydroxypiperidine-1-carbonyl)-3b,4,4a,5-tetrahydro-1H-cyclopropa[3,4]cyclopenta[1,2-c]pyrazol-1-yl)ethanone]",1.47 nM
7,"Cc1cccc(N2CCN(C(=O)Cn3nc(C(=O)N4CC[C@@H](O)[C@@H](F)C4)c4c3C[C@H]3C[C@@H]43)C3(CC3)C2)c1C [Example 365, 1-(7-(2,3-dimethylphenyl)-4,7-diazapspiro[2.5]octan-4-yl)-2-((3bR,4aR)-3-((3S,4R)-3-fluoro-4-hydroxypiperidine-1-carbonyl)-3b,4,4a,5-tetrahydro-1H-cyclopropa[3,4]cyclopenta[1,2-c]pyrazol-1-yl)ethanone]",1.19 nM
8,"CC(=O)NC1CCN(C(=O)c2nn(CC(=O)N3CCN(c4cccc(Cl)c4C)CC3)c3c2CC(F)CC3)CC1 (stereo not shown) [Example 367, N-(1-(1-(2-(4-(3-chloro-2-methylphenyl)piperazin-1-yl)-2-oxoethyl)-5-fluoro-4,5,6,7-tetrahydro-1H-indazole-3-carbonyl)piperidin-4-yl)acetamide]",2.89 nM
9,"Cc1c(Cl)cccc1N1CCN(C(=O)Cn2nc(C(=O)N3CC[C@H](O)[C@H](F)C3)c3c2CCC(F)C3)CC1 (stereo partly drawn) [Example 369, 1-(4-(3-chloro-2-methylphenyl)piperazin-1-yl)-2-(5-fluoro-3-((3R,4S)-3-fluoro-4-hydroxypiperidine-1-carbonyl)-4,5,6,7-tetrahydro-1H-indazol-1-yl)ethan-1-one]",6.62 nM
10,"Cc1c(Cl)cccc1N1CCN(C(=O)Cn2nc(C(=O)N3CC[C@@H](O)[C@@H](F)C3)c3c2CCC(F)C3)CC1 (stereo partly drawn) [Example 370, 1-(4-(3-chloro-2-methylphenyl)piperazin-1-yl)-2-(5-fluoro-3-((3S,4R)-3-fluoro-4-hydroxypiperidine-1-carbonyl)-4,5,6,7-tetrahydro-1H-indazol-1-yl)ethan-1-one]",9.52 nM
